# Experiments:
# Test in all cases: relative viability (nuclei count vs DMSO), 5 days (fraction); higher = more cells survive
# [1] = compound: C1CN(CCC1C(C2=CC3=C(C=C2)OCO3)(C4=CC5=C(C=C4)OCO5)O)C(=O)OC6=CC=C(C=C6)[N+](=O)[O-] [JZL-184] + CC(C)C[C@H](NC(=O)[C@H](Cc1ccccc1)NC(=O)c1cnccn1)B(O)O [Bortezomib] (partner 0.002 µM)
# In short: (§1)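 Lung cancer cell lines in 1536-well plates got either a single drug or a fixed anchor-drug dose together with five library-drug doses (not always all listed) in √10 steps, by pin tool, on the day after seeding. Nuclei were counted after 5 days, and relative viability is the treated-to-vehicle ratio of nuclei counts. Values are medians of duplicate plates.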
# [2] = compound: C1CN(CCC1C(C2=CC3=C(C=C2)OCO3)(C4=CC5=C(C=C4)OCO5)O)C(=O)OC6=CC=C(C=C6)[N+](=O)[O-] [JZL-184] + Nc1nc2[nH]cc(CCc3ccc(C(=O)N[C@@H](CCC(=O)O)C(=O)O)cc3)c2c(=O)[nH]1 [Pemetrexed] (partner 0.2 µM)
# In short: as §1
# [3] = compound: C1CN(CCC1C(C2=CC3=C(C=C2)OCO3)(C4=CC5=C(C=C4)OCO5)O)C(=O)OC6=CC=C(C=C6)[N+](=O)[O-] [JZL-184] + CC(=O)c1c(C)c2cnc(Nc3ccc(N4CCNCC4)cn3)nc2n(C2CCCC2)c1=O [Palbociclib] (partner 0.5 µM)
# In short: as §1
# [4] = compound: C1CN(CCC1C(C2=CC3=C(C=C2)OCO3)(C4=CC5=C(C=C4)OCO5)O)C(=O)OC6=CC=C(C=C6)[N+](=O)[O-] [JZL-184] + CS(=O)(=O)CCNCc1ccc(-c2ccc3ncnc(Nc4ccc(OCc5cccc(F)c5)c(Cl)c4)c3c2)o1 [Lapatinib] (partner 2 µM)
# In short: as §1
# [5] = compound: C1CN(CCC1C(C2=CC3=C(C=C2)OCO3)(C4=CC5=C(C=C4)OCO5)O)C(=O)OC6=CC=C(C=C6)[N+](=O)[O-] [JZL-184] + CS(=O)(=O)N1CCN(Cc2cc3nc(-c4cccc5[nH]ncc45)nc(N4CCOCC4)c3s2)CC1 [Pictilisib] (partner 1 µM)
# In short: as §1
Cell Line,relative viability ([1]; first compound 0.04 µM),relative viability ([1]; first compound 0.4 µM),relative viability ([1]; first compound 1.265 µM),relative viability ([1]; first compound 4 µM),relative viability ([2]; first compound 0.04 µM),relative viability ([2]; first compound 0.4 µM),relative viability ([2]; first compound 1.265 µM),relative viability ([2]; first compound 4 µM),relative viability ([3]; first compound 0.04 µM),relative viability ([3]; first compound 0.4 µM),relative viability ([3]; first compound 1.265 µM),relative viability ([3]; first compound 4 µM),relative viability ([4]; first compound 0.04 µM),relative viability ([4]; first compound 0.4 µM),relative viability ([4]; first compound 1.265 µM),relative viability ([4]; first compound 4 µM),relative viability ([5]; first compound 0.04 µM),relative viability ([5]; first compound 0.4 µM),relative viability ([5]; first compound 1.265 µM),relative viability ([5]; first compound 4 µM)
201T,1.14,1.04,1.07,1.07,0.355,0.351,0.348,0.293,0.383,0.339,0.373,0.344,1.09,1.06,0.981,1.02,0.743,0.67,0.727,0.649
A549,,,,,,,,,,,,,1.06,0.967,0.955,1.01,0.643,0.451,0.478,0.498
A-427,1.05,0.965,1,0.918,1.03,0.971,1.06,0.886,0.588,0.515,0.518,0.536,1.17,1.05,1.01,1.09,0.797,0.639,0.852,0.697
ABC-1,0.336,0.352,0.375,0.247,,,,,0.861,0.641,0.399,0.696,1.09,0.947,1.07,1.19,0.946,0.71,0.898,0.625
BEN,0.912,0.711,0.942,0.799,0.811,0.787,0.887,1.02,0.457,0.46,0.445,0.491,0.865,0.671,0.939,0.819,0.661,0.515,0.637,0.54
CAL-12T,1.15,0.942,1.18,1.08,1.4,0.997,1.22,1.08,0.692,0.314,0.508,0.576,0.701,0.529,0.789,0.593,0.415,0.263,0.686,0.422
COR-L23,1.2,0.915,0.979,0.91,0.195,0.191,0.179,0.192,0.337,0.234,0.287,0.273,1.26,0.818,0.889,0.823,0.945,0.775,0.842,0.757
COR-L 105,0.922,0.742,0.837,0.759,1.23,1.07,1.18,1.09,0.464,0.376,0.371,0.409,0.349,0.352,0.394,0.327,0.448,0.41,0.368,0.37
ChaGo-K-1,1.45,0.984,1.1,1.03,0.262,0.257,0.256,0.266,1,0.933,0.975,0.951,,,,,1.03,0.585,1.04,0.741
EKVX,1.12,0.905,1.04,0.967,0.364,0.326,0.352,0.403,0.436,0.331,0.323,0.371,0.193,0.221,0.194,0.2,0.501,0.407,0.446,0.432
EMC-BAC-2,1.2,1.02,1.16,1.07,0.452,0.423,0.454,0.473,0.584,0.458,0.508,0.512,0.96,0.869,0.971,0.83,0.59,0.559,0.565,0.488
EPLC-272H,1.03,0.735,1.06,0.839,0.316,0.22,0.351,0.319,0.331,0.314,0.326,0.297,1.07,1.02,0.972,0.944,0.317,0.271,0.38,0.314
H3255,0.954,0.708,1.01,0.75,0.632,0.49,0.522,0.553,0.353,0.322,0.343,0.323,0.234,0.267,0.261,0.321,0.524,0.454,0.526,0.49
HARA,1.11,0.967,1.17,1.09,0.289,,0.268,0.254,0.25,0.204,0.273,0.238,0.839,0.773,0.807,0.751,0.356,0.363,0.424,0.577
HCC-15,1.11,0.987,1.03,0.995,0.222,0.217,0.212,0.23,0.732,0.77,0.71,0.698,0.988,0.813,0.943,0.778,0.957,0.664,0.814,0.697
HCC-44,0.8,0.878,0.836,0.856,0.708,0.621,0.688,0.64,0.965,0.967,1.03,0.981,1.15,0.93,1.08,1.07,0.592,0.549,0.622,0.528
HCC-78,0.384,0.521,0.667,0.516,0.895,,0.875,0.919,0.425,0.425,0.452,0.471,0.634,0.787,0.755,0.302,0.204,0.188,0.248,0.2
HCC-366,1.26,1.01,1.09,0.978,0.175,0.146,0.137,0.161,0.426,0.374,0.394,0.322,1.19,0.959,1.13,1.05,0.158,0.179,0.155,0.113

Cell Line,relative viability ([1]; first compound 0.04 µM),relative viability ([1]; first compound 0.4 µM),relative viability ([1]; first compound 1.265 µM),relative viability ([1]; first compound 4 µM),relative viability ([2]; first compound 0.04 µM),relative viability ([2]; first compound 0.4 µM),relative viability ([2]; first compound 1.265 µM),relative viability ([2]; first compound 4 µM),relative viability ([3]; first compound 0.04 µM),relative viability ([3]; first compound 0.4 µM),relative viability ([3]; first compound 1.265 µM),relative viability ([3]; first compound 4 µM),relative viability ([4]; first compound 0.04 µM),relative viability ([4]; first compound 0.4 µM),relative viability ([4]; first compound 1.265 µM),relative viability ([4]; first compound 4 µM),relative viability ([5]; first compound 0.04 µM),relative viability ([5]; first compound 0.4 µM),relative viability ([5]; first compound 1.265 µM),relative viability ([5]; first compound 4 µM)
HCC-827,1.11,0.911,1.07,1.02,0.222,0.199,0.178,0.261,0.52,0.441,0.555,0.48,0.228,0.196,0.234,0.221,0.915,0.908,1.01,1.06
HOP-62,1.09,0.862,0.809,0.856,0.331,0.312,0.306,0.309,0.481,0.374,0.453,0.455,1.19,1,0.665,0.986,0.69,0.822,0.901,0.94
LCLC-103H,0.992,1.08,0.985,1.02,0.495,0.481,0.453,0.477,0.438,0.213,0.502,0.511,,,,,0.574,0.49,0.654,0.615
LK-2,,,,,0.235,0.2,0.183,0.277,0.817,0.514,0.795,0.887,1.24,0.878,1.04,0.972,0.511,0.6,0.632,0.645
NCI-H358,,,,,0.195,0.162,0.181,0.163,0.138,0.142,0.137,0.129,0.52,0.418,0.448,0.436,0.353,0.399,0.319,0.444
NCI-H441,0.379,0.373,0.227,0.591,0.277,0.248,0.239,0.285,0.207,0.229,0.238,0.236,,,,,0.631,0.409,0.607,0.423
NCI-H522,,,,,1.23,0.981,1.02,1.16,1.23,0.936,1.13,0.903,,,,,,,,
NCI-H596,1.21,0.948,1.17,1.08,0.543,0.411,0.452,0.48,,,,,1.12,0.948,1.04,0.992,0.397,0.393,0.429,0.356
NCI-H727,0.988,0.689,0.797,0.802,,,,,0.64,0.708,0.63,0.738,0.92,0.688,0.862,0.807,0.505,0.393,0.333,0.473
NCI-H1395,,,,,0.785,0.948,0.985,0.75,0.661,0.598,0.63,0.573,0.997,0.953,0.91,0.995,0.596,0.536,0.761,0.551
NCI-H1703,0.349,0.213,0.359,0.467,,,,,,,,,1.44,0.936,1.4,0.983,0.265,0.216,0.288,0.246
NCI-H1793,,,,,0.936,0.801,0.982,0.735,0.271,0.285,0.281,0.312,0.853,0.492,0.812,0.422,0.295,0.214,0.344,0.31
NCI-H1944,,,,,0.587,0.53,0.72,0.567,0.338,0.289,0.347,0.328,0.805,0.803,0.875,0.846,0.345,0.318,0.34,0.335
NCI-H2170,,,,,0.267,0.258,0.252,0.286,0.439,0.37,0.407,0.366,0.302,0.252,0.285,0.275,0.341,0.309,0.332,0.331
NCI-H2342,,,,,0.654,0.732,0.78,0.778,0.563,0.535,0.522,0.529,,,,,,,,
SK-MES-1,,,,,0.9,0.872,1,0.907,0.372,0.311,0.316,0.297,0.424,0.434,0.43,0.415,0.348,0.408,0.389,0.349
SW 900,,,,,0.496,0.482,0.537,0.491,0.548,0.513,0.558,0.521,,,,,,,,
